Patent US11702422B2, “Imidazopyridazines as modulators of IL-17” (Janssen Pharmaceutica NV, priority 2020, dated 2023)

Key:
[1] = target: IL-17A(FLAG-Tagged): IL-17RA(His-Tagged) (Homo sapiens, UniProt Q16552, K93Q); assay: IL-17A(FLAG-Tagged): IL-17RA(His-Tagged) Binding Disruption Eu-HTRF Assay; conditions: IL-17A/IL-17RA binding disruption, simple average if tested more than once
Outline: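 IC50 comes from a one-site competition fit of the HTRF 665/620 nm ratio. Compound dilutions (2-fold, 22 points) were held 1 h rt with FLAG-tagged IL-17A dimer, then His-tagged IL-17RA plus Eu-cryptate anti-FLAG and D2 anti-His antibodies were added for 2 h rt.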

[2] = test system: IL-17A-induced G-CSF production in human normal keratinocyte (NHK); assay: NHK Assay: IL-17A-induced G-CSF production in human normal keratinocytes; format: cell-based; conditions: 24 h, adult normal human keratinocytes, IL-17A 5 ng/mL, simple average if tested more than once
Outline: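 Inhibition of IL-17A-driven G-CSF release is measured in adult keratinocytes stimulated for 24 h at 37° C with 5 ng/mL human IL-17A that had been pre-incubated with compound for 1 h. IC50 comes from HTRF G-CSF levels; cell viability is checked in parallel by luminescent ATP assay.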

Sequence of UniProt Q16552 (Q16552 with tags, fused parts or gaps K93Q): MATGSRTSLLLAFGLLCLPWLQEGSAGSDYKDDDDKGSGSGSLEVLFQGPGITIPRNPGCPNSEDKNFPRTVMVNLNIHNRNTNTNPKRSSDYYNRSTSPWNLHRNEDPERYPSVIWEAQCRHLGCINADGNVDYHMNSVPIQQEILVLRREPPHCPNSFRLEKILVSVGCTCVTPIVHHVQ

Row | SMILES | IC50 [1] [nM] | IC50 ([2]; Homo sapiens, Keratinocyte) [nM] | IC50 [2] [nM]
1 | O=C(CCC(F)(F)F)N[C@@H](c1cnn2cc([C@@H](NC(=O)[C@@H]3C[C@@H]3CF)C3CCC(F)(F)CC3)nc2c1)C1CC1 (relative stereo) [Example 365, (1R*,2S*)—N—((S)-(7-((R*)-Cyclopropyl(4,4,4-trifluorobutanamido)methyl)imidazo[1,2-b]pyridazin-2-yl)(4,4-difluorocyclohexyl)methyl)-2-(fluoromethyl)cyclopropane-1-carboxamide] | 1200 | > 20000 | –
2 | O=C(CCC(F)(F)F)N[C@@H](c1cnn2cc([C@@H](NC(=O)[C@H]3C(F)(F)C34CCC4)C3CCC(F)(F)CC3)nc2c1)C1CC1 (relative stereo) [Example 368, (S*)—N—((S)-(7-((R*)-Cyclopropyl(4,4,4-trifluorobutanamido)methyl)imidazo[1,2-b]pyridazin-2-yl)(4,4-difluorocyclohexyl)methyl)-2,2-difluorospiro[2.3]hexane-1-carboxamide] | 1600 | 9800 | –
3 | O=C(CCC(F)(F)F)N[C@@H](c1cnn2cc([C@@H](NC(=O)[C@@H]3C(F)(F)C34CCC4)C3CCC(F)(F)CC3)nc2c1)C1CC1 (relative stereo) [Example 369, (R*)—N—((S)-(7-((R*)-Cyclopropyl(4,4,4-trifluorobutanamido)methyl)imidazo[1,2-b]pyridazin-2-yl)(4,4-difluorocyclohexyl)methyl)-2,2-difluorospiro[2.3]hexane-1-carboxamide] | 140 | 530 | –
4 | Cc1nonc1C(=O)N[C@H](c1cn2ncc([C@H](NC(=O)CC3CC(F)(F)C3)C3CC3)cc2n1)[C@@H]1C[C@@H]2[C@H](C1)C2(F)F (relative stereo) [Example 405, N—((S*)-(7-((R)-Cyclopropyl(2-(3,3-difluorocyclobutyl)acetamido)methyl)imidazo[1,2-b]pyridazin-2-yl)((1R,3s,5S)-6,6-difluorobicyclo[3.1.0]hexan-3-yl)methyl)-4-methyl-1,2,5-oxadiazole-3-carboxamide] | 100 | 350 | –
5 | [2H]C([2H])([2H])C([2H])([2H])n1nccc1C(=O)N[C@H](c1cn2ncc([C@H](NC(=O)C[C@H](C)C(F)(F)F)C3CCC3)cc2n1)C1CCC(F)(F)CC1 (relative stereo) [Example 500, N—((S)-(7-((R*)-Cyclobutyl((S*)-4,4,4-trifluoro-3-methylbutanamido)methyl)imidazo[1,2-b]pyridazin-2-yl)(4,4-difluorocyclohexyl)methyl)-1-(ethyl-d5)-1H-pyrazole-5-carboxamide] | 150 | 140 | –
6 | [2H]C([2H])([2H])n1nccc1C(=O)N[C@H](c1cn2ncc([C@H](NC(=O)C[C@@H](C)C(F)(F)F)C3CCC3)cc2n1)C1CCC(F)(F)CC1 (relative stereo) [Example 502, N—((S)-(7-((R*)-Cyclobutyl((R*)-4,4,4-trifluoro-3-methylbutanamido)methyl)imidazo[1,2-b]pyridazin-2-yl)(4,4-difluorocyclohexyl)methyl)-1-(methyl-d3)-1H-pyrazole-5-carboxamide] | 160 | 400 | –
7 | [2H]C([2H])([2H])n1nccc1C(=O)N[C@H](c1cn2ncc([C@H](NC(=O)C[C@H](C)C(F)(F)F)C3CCC3)cc2n1)C1CCC(F)(F)CC1 (relative stereo) [Example 503, N—((S)-(7-((R*)-Cyclobutyl((S*)-4,4,4-trifluoro-3-methylbutanamido)methyl)imidazo[1,2-]pyridazin-2-yl)(4,4-difluorocyclohexyl)methyl)-1-(methyl-d3)-1H-pyrazole-5-carboxamide] | 100 | 130 | –
8 | [2H]C([2H])([2H])C([2H])([2H])n1nccc1C(=O)N[C@H](c1cn2ncc([C@H](CC)NC(=O)CC3CC(F)(F)C3)cc2n1)C1CCC(F)(F)CC1 (relative stereo) [Example 508, N—((S)-(7-((S*)-1-(2-(3,3-Difluorocyclobutyl)acetamido)propyl)imidazo[1,2-b]pyridazin-2-yl)(4,4-difluorocyclohexyl)methy)-1-(ethyl-d5)-1H-pyrazole-5-carboxamide] | 1200 | 10000 | –
9 | O=C(CCC(F)(F)F)NC(c1cnn2cc([C@@H](NC(=O)c3cnn(CCC(F)(F)F)c3)C3CCC(F)(F)CC3)nc2c1)C1CC1 (single isomer, unassigned) [Example 7, N—((S)-(7-((S*)-Cyclopropyl(4,4,4-trifluorobutanamido)methyl)imidazo[1,2-b]pyridazin-2-yl)(4,4-difluorocyclohexyl)methyl)-1-(3,3,3-trifluoropropyl)-1H-pyrazole-4-carboxamide] | 4900 | – | > 20000

The remaining compounds from weak to strong by IC50 [1], led by results:

Row | IC50 [1] [nM] | SMILES | IC50 ([2]; Homo sapiens, Keratinocyte) [nM] | IC50 [2] [nM]
10 | 2400 | O=C(CCC(F)(F)F)N[C@@H](c1cnn2cc([C@@H](NC(=O)[C@@H]3CC34CCC4)C3CCC(F)(F)CC3)nc2c1)C1CC1 (relative stereo) [Example 366, (R*)—N—((S)-(7-((R*)-Cyclopropyl(4,4,4-trifluorobutanamido)methyl)imidazo[1,2-b]pyridazin-2-yl)(4,4-difluorocyclohexyl)methyl)spiro[2.3]hexane-1-carboxamide] | > 20000 | –
11 | 390 | CC[C@H](NC(=O)CC1CC(F)(F)C1)c1cnn2cc([C@@H](NC(=O)c3nonc3C3CC3)C3CCC(F)(F)CC3)nc2c1 (relative stereo) [Example 521, 4-Cyclopropyl-N—((S*)-(7-((R)-1-(2-(3,3-difluorocyclobutyl)acetamido)propyl)imidazo[1,2-b]pyridazin-2-yl)(4,4-difluorocyclohexyl)methyl)-1,2,5-oxadiazole-3-carboxamide] | 8000 | –
12 | 380 | [2H]C([2H])([2H])n1nccc1C(=O)N[C@H](c1cn2ncc([C@@H](NC(=O)CC3CC(F)(F)C3)C3CCC3)cc2n1)C1CCC(F)(F)CC1 (relative stereo) [Example 498, N—((S)-(7-((S*)-Cyclobutyl(2-(3,3-difluorocyclobutyl)acetamido)methyl)imidazo[1,2-b]pyridazin-2-yl)(4,4-difluorocyclohexyl)methyl)-1-methyl-d3)-1H-pyrazole-5-carboxamide] | 20000 | –
13 | 290 | O=C(CCC(F)(F)F)NC(c1cnn2cc([C@@H](NC(=O)c3cnn(CCC(F)(F)F)c3)C3CCC(F)(F)CC3)nc2c1)C1CC1 (single isomer, unassigned) [Example 6, N—((S)-(7-((R*)-Cyclopropyl(4,4,4-trifluorobutanamido)methyl)imidazo[1,2-b]pyridazin-2-yl)(4,4-difluorocyclohexyl)methyl)-1-(3,3,3-trifluoropropyl)-1H-pyrazole-4-carboxamide] | – | 570
14 | 240 | O=C(CCC(F)(F)F)N[C@@H](c1cnn2cc([C@@H](NC(=O)[C@H]3CC34CCC4)C3CCC(F)(F)CC3)nc2c1)C1CC1 (relative stereo) [Example 367, (S*)—N—((S)-(7-((R*)-Cyclopropyl(4,4,4-trifluorobutanamido)methyl)imidazo[1,2-b]pyridazin-2-yl)(4,4-difluorocyclohexyl)methyl)spiro[2.3]hexane-1-carboxamide] | 630 | –
15 | 180 | CC(C)n1nccc1C(=O)N[C@H](c1cn2ncc([C@H](NC(=O)CC3CC(F)(F)C3)C3CC3)cc2n1)[C@@H]1C[C@@H]2[C@H](C1)C2(F)F (relative stereo) [Example 404, N—((S*)-(7-((R)-Cyclopropyl(2-(3,3-difluorocyclobutyl)acetamido)methyl)imidazo[1,2-b]pyridazin-2-yl)((1R,3s,5S)-6,6-difluorobicyclo[3.1.0]hexan-3-yl)methyl)-1-isopropyl-1H-pyrazole-5-carboxamide] | 58 | –
16 | 120 | [2H]C([2H])([2H])C([2H])([2H])n1nccc1C(=O)N[C@H](c1cn2ncc([C@H](NC(=O)C[C@@H](C)C(F)(F)F)C3CCC3)cc2n1)C1CCC(F)(F)CC1 (relative stereo) [Example 501, N—((S)-(7-((R*)-Cyclobutyl((R*)-4,4,4-trifluoro-3-methylbutanamido)methyl)imidazo[1,2-b]pyridazin-2-yl)(4,4-difluorocyclohexyl)methyl)-1-(ethyl-d5)-1H-pyrazole-5-carboxamide] | 95 | –
17 | 49 | O=C(CC1CC(F)(F)C1)N[C@@H](c1cnn2cc([C@@H](NC(=O)c3nonc3C3CC3)C3CCC(F)(F)CC3)nc2c1)C1CCOCC1 (relative stereo) [Example 536, 4-Cyclopropyl-N—((S)-(7-((R*)-1-(2-(3,3-difluorocyclobutyl)acetamido)(tetrahydro-2H-pyran-4-yl)methylimidazo[1,2-b]pyridazin-2-yl)(4,4-difluorocyclohexyl)methyl)-1,2,5-oxadiazole-3-carboxamide] | 12 | –
18 | 28 | N#CC1([C@@H](NC(=O)C[C@H]2CC2(F)F)c2cnn3cc([C@@H](NC(=O)c4nonc4C4CC4)C4CCC(F)(F)CC4)nc3c2)CCC1 (relative stereo) [Example 449, N—((S)-(7-((S*)-(1-Cyanocyclobutyl)(2-((S*)-2,2-difluorocyclopropyl)acetamido)methyl)imidazo[1,2-b]pyridazin-2-yl)(4,4-difluorocyclohexyl)methyl)-4-cyclopropyl-1,2,5-oxadiazole-3-carboxamide] | 4.7 | –
